# Measured values from US10023557B2 (LifeSci Pharmaceuticals, Inc., priority 2015, dated 2018).
# How the values were obtained:
# [1] = target: human plasma kallikrein (Homo sapiens (Human), UniProt P03952); experiment: In vitro enzyme inhibition of human plasma kallikrein (PFR-AMC cleavage); format: biochemical; conditions: Pro-Phe-Arg-AMC substrate, 37° C., read-out: hPK IC50
# Summary of the method: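 Human plasma kallikrein and compound, diluted in 50 mM Tris-HCl pH 7.5, 150 mM NaCl, 0.01% Triton X-100, preincubated 5 min at 37 °C before PFR-AMC was added.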
# [2] = target: cellular kallikrein activity (Homo sapiens (Human), UniProt P03952); experiment: In vitro cellular assay (contact assay): kallikrein activity in ellagic acid-activated human plasma, Z-FR-2-AMC substrate; format: biochemical; conditions: human plasma activated with ellagic acid, 37° C.
# cellular kallikrein activity, sequence (P03952 391-638): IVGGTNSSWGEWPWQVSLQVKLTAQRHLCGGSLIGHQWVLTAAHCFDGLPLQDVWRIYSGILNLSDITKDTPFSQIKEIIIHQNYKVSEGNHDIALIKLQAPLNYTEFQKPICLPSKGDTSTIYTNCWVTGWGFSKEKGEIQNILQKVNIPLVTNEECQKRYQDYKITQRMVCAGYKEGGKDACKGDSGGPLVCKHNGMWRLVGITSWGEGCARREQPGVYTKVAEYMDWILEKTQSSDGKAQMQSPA
# cellular kallikrein activity, sequence (P03952 20-390 partner): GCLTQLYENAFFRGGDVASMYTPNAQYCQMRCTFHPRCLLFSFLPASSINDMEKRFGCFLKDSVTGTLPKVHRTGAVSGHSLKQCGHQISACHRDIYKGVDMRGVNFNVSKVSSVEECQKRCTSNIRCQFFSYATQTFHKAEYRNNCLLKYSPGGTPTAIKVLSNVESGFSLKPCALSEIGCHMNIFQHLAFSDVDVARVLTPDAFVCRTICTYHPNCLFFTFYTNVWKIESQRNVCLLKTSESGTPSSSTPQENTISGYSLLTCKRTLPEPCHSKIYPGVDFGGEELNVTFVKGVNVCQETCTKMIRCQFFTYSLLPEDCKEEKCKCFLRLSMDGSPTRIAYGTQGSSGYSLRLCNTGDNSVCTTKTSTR
# Method: The ability of the compounds disclosed herein to inhibit cellular kallikrein activity was quantified and the respective EC50 value was determined.
# All dilutions were prepared in an assay buffer comprising 50 mM Tris-HCl pH 7.2, 150 mM NaCl, and 0.01% Triton X-100.
# The ten solutions of the test compounds, prepared by serial dilution, were further diluted 50-fold in the assay buffer.
# Human plasma is thawed on ice and centrifuged for 15 min at 4° C. to remove platelets. A 1 mM stock solution of ellagic acid is diluted to 8 μM and mixed with human plasma, after removing platelets, at a ratio of 1:0.8.
# A 22.5 μL volume of the final mixture of human plasma and ellagic acid was added to a 96-well microwell plate and the plate was incubated for 15 min at 37° C.
# The CINH inhibitor at various concentrations, prepared by serial dilutions as described above, were added to the inhibitor control wells. […] Each CINH concentration is tested in duplicates.
# The test compounds at various concentrations, also prepared by serial dilutions as described above, are added to the test wells. […] Each test compound concentration was tested in duplicates.
# In addition to the inhibitor control and test wells, the 96 well assay plate includes positive control wells which contained the mixture of human plasma and ellagic acid without C1NH inhibitor or test compounds, and background wells which contained neither the mixture of human plasma and ellagic acid nor the test compounds. The total volume of liquid in positive control and background wells was brought up to 35 μL, using the assay buffer.
# The assay plate containing C1NH inhibitors and test compounds mixed with human plasma and ellagic acid and appropriate controls was incubated at 37° C. for 5 min. […] The reagents were mixed well by shaking the plate gently for 30 sec.
# The enzyme reaction was quantified by immediate kinetic reading of the assay plate using excitation/emission wavelengths of 330 nm/440 nm respectively. Fluorescence intensity was recorded for 60 min, using a time interval of 43 sec.
# The inhibition activity of the test compounds were evaluated using the EC50 values, calculated according to the dose-response curve of the test compounds, fitted using the “log(inhibitor)−response (variable slope)” equation in GraphPadPrism software (GraphPad Software, Inc.).
# The percentage inhibition was calculated using the following equation:
# [formula] where, Mean (BG) is the average value of the fluorescence intensity of the background wells and Mean (PC) is the average value of the fluorescence intensity of the positive control wells.
# Table 4 provides the EC50 values of various compounds disclosed herein.
# human plasma kallikrein, sequence (P03952 391-638): as the sequence (P03952 391-638) above
# human plasma kallikrein, sequence (P03952 20-390 partner): as the sequence (P03952 20-390 partner) above
Compound,IC50 [1] [µM],EC50 [2] [µM]
"Cc1cc(N)nc(C)c1CNC(=O)c1ccnc(Cc2cnc3[nH]c(C(F)(F)F)cc3c2)c1 [Example 152, N-((6-amino-2,4-dimethylpyridin-3-yl)methyl)-2-((2-(trifluoromethyl)-1H-pyrrolo[2,3-b]pyridin-5-yl)methyl)isonicotinamide]",< 0.1,0.1 to 1
"CCCc1cnc2ccc(Cc3cc(C(=O)NCc4c(C)cc(N)nc4C)ccn3)cc2c1 [Example 255, N-((6-amino-2,4-dimethylpyridin-3-yl)methyl)-2-((3-propylquinolin-6-yl)methyl)isonicotinamide]",< 0.1,< 0.1
"Cc1cc(N)nc(C)c1CNC(=O)c1ccnc(C(C)(O)c2ccc3ncc(Cl)cc3c2)c1 (stereo not shown) [Example 277, N-((6-amino-2,4-dimethylpyridin-3-yl)methyl)-2-(1-(3-chloroquinolin-6-yl)-1-hydroxyethyl)isonicotinamide]",0.1 to 1,0.1 to 1
"Cc1cc(N)nc(C)c1CNC(=O)c1ccnc(Cc2cc3cc(C(F)(F)F)cnc3[nH]2)c1 [Example 215, N-((6-amino-2,4-dimethylpyridin-3-yl)methyl)-2-((5-(trifluoromethyl)-1H-pyrrolo[2,3-b]pyridin-2-yl)methyl)isonicotinamide]",< 0.1,0.1 to 1
"Nc1nccc2cc(CNC(=O)c3ccnc(Cc4ccc5ncc(C(F)(F)F)cc5c4)c3)ccc12 [Example 232, N-((1-aminoisoquinolin-6-yl)methyl)-2-((3-(trifluoromethyl)quinolin-6-yl)methyl)isonicotinamide]",< 0.1,< 0.1
"COc1cnc2ccc(Cc3cc(C(=O)NCc4c(C)cc(N)nc4C)ccn3)cc2c1 [Example 264, N-((6-amino-2,4-dimethylpyridin-3-yl)methyl)-2-((3-methoxyquinolin-6-yl)methyl)isonicotinamide]",< 0.1,< 0.1
"Cc1cc(N)nc(C)c1CNC(=O)c1ccnc(Cc2cc3cc(Cl)cn3cn2)c1 [Example 153, N-((6-amino-2,4-dimethylpyridin-3-yl)methyl)-2-((6-chloropyrrolo[1,2-c]pyrimidin-3-yl)methyl)isonicotinamide]",< 0.1,< 0.1
"Cc1cc(N)nc(C)c1CNC(=O)c1cc(CC(N)=O)nc(Cc2ccc3ncc(Cl)cc3c2)c1 [Example 214, N-((6-amino-2,4-dimethylpyridin-3-yl)methyl)-2-(2-amino-2-oxoethyl)-6-((3-chloroquinolin-6-yl)methyl)isonicotinamide]",< 0.1,< 0.1
"Cc1nc(N)ccc1CNC(=O)c1ccnc(Cc2ccc3ncc(C(F)(F)F)cc3c2)c1 [Example 229, N-((6-amino-2-methylpyridin-3-yl)methyl)-2-((3-(trifluoromethyl)quinolin-6-yl)methyl)isonicotinamide]",< 0.1,< 0.1
"Cc1cc(N)nc(C)c1CNC(=O)c1ccnc(Cc2ccc3ncc(C4CC4)cc3c2)c1 [Example 243, N-((6-amino-2,4-dimethylpyridin-3-yl)methyl)-2-((3-cyclopropylquinolin-6-yl)methyl)isonicotinamide]",< 0.1,< 0.1
"CCc1cnc2ccc(Cc3cc(C(=O)NCc4c(C)cc(N)nc4C)ccn3)cc2c1 [Example 286, N-((6-amino-2,4-dimethylpyridin-3-yl)methyl)-2-((3-ethylquinolin-6-yl)methyl)isonicotinamide]",< 0.1,< 0.1
"Cc1cc(N)nc(C)c1CNC(=O)c1cc(CC#N)nc(Cc2ccc3ncc(Cl)cc3c2)c1 [Example 213, N-((6-amino-2,4-dimethylpyridin-3-yl)methyl)-2-((3-chloroquinolin-6-yl)methyl)-6-(cyanomethyl)isonicotinamide]",< 0.1,< 0.1
"Cc1cc(N)nc(C)c1CNC(=O)c1ccnc(C(N)c2ccc3ncc(Cl)cc3c2)c1 (stereo not shown) [Example 276, 2-[Amino-(3-chloro-quinolin-6-yl)-methyl]-N-(6-amino-2,4-dimethyl-pyridin-3-ylmethyl)-isonicotinamide]",< 0.1,0.1 to 1
"Cc1cc(CN)nc(C)c1CNC(=O)c1ccnc(Cc2ccc3ncc(C(F)(F)F)cc3c2)c1 [Example 172, N-((6-(aminomethyl)-2,4-dimethylpyridin-3-yl)methyl)-2-((3-(trifluoromethyl)quinolin-6-yl)methyl)isonicotinamide]",< 0.1,< 0.1

# The remaining lines, values ahead:
IC50 [1] [µM],EC50 [2] [µM],Compound
< 0.1,0.1 to 1,"Nc1nccc2cc(CNC(=O)c3ccnc(Cc4ccc5ncc(Cl)cc5c4)c3)c(F)cc12 [Example 180, N-((1-amino-7-fluoroisoquinolin-6-yl)methyl)-2-((3-chloroquinolin-6-yl)methyl)isonicotinamide]"
< 0.1,0.1 to 1,"O=C(NCc1cnc2[nH]cc(Cl)c2c1)c1ccnc(Cc2ccc3ncc(C(F)(F)F)cc3c2)c1 [Example 231, N-((3-chloro-1H-pyrrolo[2,3-b]pyridin-5-yl)methyl)-2-((3-(trifluoromethyl)quinolin-6-yl)methyl)isonicotinamide]"
< 0.1,0.1 to 1,"CC(C)(O)c1cc(Cc2cc(C(=O)NCc3n[nH]c4ccc(Cl)cc34)ccn2)cc2cc(Cl)cnc12 [Example 225, N-((5-chloro-1H-indazol-3-yl)methyl)-2-((3-chloro-8-(2-hydroxypropan-2-yl)quinolin-6-yl)methyl)isonicotinamide]"
< 0.1,< 0.1,"Cc1cc(N)nc(C)c1CNC(=O)c1ccnc(Cc2cnc3cc(F)c(Cl)cc3c2)c1 [Example 226, N-((6-amino-2,4-dimethylpyridin-3-yl)methyl)-2-((6-chloro-7-fluoroquinolin-3-yl)methyl)isonicotinamide]"
< 0.1,< 0.1,"Cc1cnc2c(S(N)(=O)=O)cc(Cc3cc(C(=O)NCc4cc5c(Cl)c[nH]c5cc4F)ccn3)cc2c1 [Example 287, N-((3-chloro-6-fluoro-1H-indol-5-yl)methyl)-2-((3-methyl-8-sulfamoylquinolin-6-yl)methyl)isonicotinamide]"
< 0.1,< 0.1,"Cc1c(CNC(=O)c2ccnc(Cc3ccc4ncc(Cl)cc4c3)c2)ccc2c(N)nccc12 [Example 177, N-((1-amino-5-methylisoquinolin-6-yl)methyl)-2-((3-chloroquinolin-6-yl)methyl)isonicotinamide]"
< 0.1,< 0.1,"Cc1cnc2c(S(N)(=O)=O)cc(Cc3cc(C(=O)NCc4ccc5c(N)nccc5c4)ccn3)cc2c1 [Example 289, N-((1-aminoisoquinolin-6-yl)methyl)-2-((3-methyl-8-sulfamoylquinolin-6-yl)methyl)isonicotinamide]"
< 0.1,< 0.1,"Cc1cc(N)nc(C)c1CNC(=O)c1ccnc(Cc2cc3cc(Cl)cnc3cn2)c1 [Example 148, N-((6-amino-2,4-dimethylpyridin-3-yl)methyl)-2-((3-chloro-1,7-naphthyridin-6-yl)methyl)isonicotinamide]"
< 0.1,0.1 to 1,"Cc1cnc2c(S(N)(=O)=O)cc(Cc3cc(C(=O)NCc4n[nH]c5ccc(Cl)cc45)ccn3)cc2c1 [Example 288, N-((5-chloro-1H-indazol-3-yl)methyl)-2-((3-methyl-8-sulfamoylquinolin-6-yl)methyl)isonicotinamide]"
< 0.1,0.1 to 1,"CC(C)(O)c1cc(Cc2cc(C(=O)NCc3ccc4[nH]cc(Cl)c4c3F)ccn2)cc2cc(Cl)cnc12 [Example 222, N-((3-chloro-4-fluoro-1H-indol-5-yl)methyl)-2-((3-chloro-8-(2-hydroxypropan-2-yl)quinolin-6-yl)methyl)isonicotinamide]"
< 0.1,< 0.1,"Cc1cc2c(N)nccc2cc1CNC(=O)c1ccnc(Cc2ccc3ncc(Cl)cc3c2)c1 [Example 181, N-((1-amino-7-methylisoquinolin-6-yl)methyl)-2-((3-chloroquinolin-6-yl)methyl)isonicotinamide]"
< 0.1,< 0.1,"CC(C)(O)c1cc(Cc2cc(C(=O)NCc3cnc4[nH]cc(Cl)c4c3)ccn2)cc2cc(Cl)cnc12 [Example 223, N-((3-chloro-1H-pyrrolo[2,3-b]pyridin-5-yl)methyl)-2-((3-chloro-8-(2-hydroxypropan-2-yl)quinolin-6-yl)methyl)isonicotinamide]"
